Data on two molecules can be found in US10174021B2, “Substituted pyrazolo[1,5-A]pyridines and their use” (BAYER PHARMA AKTIENGESELLSCHAFT, priority 2014, dated 2019).

Where a name gives a salt, the structure may show the parent alone.

In this assay the test system is recombinant guanylate cyclase reporter cell line. As to the kind of experiment: Effect on a recombinant guanylate cyclase reporter cell line. The assay is classed as cell-based. As to conditions: in some cases mean values from individual determinations, read-out: MEC (minimum effective concentration). The method, then:
B-2. Effect on a Recombinant Guanylate Cyclase Reporter Cell Line
The cellular activity of the compounds according to the invention is determined using a recombinant guanylate cyclase reporter cell line, as described in F. Wunder et al., Anal. Biochem. 339, 104-112 (2005).
Representative MEC values (MEC=minimum effective concentration) for the compounds of the invention are shown in the table below (in some cases as mean values from individual determinations): […]

As to `Cc1cc(OCc2c(F)cccc2F)n2nc(C)c(-c3cnn(CCO)c3)c2c1` [Example 24, 2-(4-{7-[(2,6-Difluorobenzyl)oxy]-2,5-dimethylpyrazolo[1,5-a]pyridin-3-yl}-1H-pyrazol-1-yl)ethanol trifluoroacetate], the minimal effective concentration amounted to 0.065 µM. The value for `Cc1cc(OCc2c(F)cccc2F)n2nc(C)c(-c3cccc(NS(C)(=O)=O)c3)c2c1` [Example 13, N-(3-{7-[(2,6-Difluorobenzyl)oxy]-2,5-dimethylpyrazolo[1,5-a]pyridin-3-yl}phenyl)methansulphonamide] was 0.1 µM.
